Our source for the IC50 values is patent US20240415819A1, “MACROCYCLIC COMPOUNDS AS PROTEASOME SUBUNIT BETA TYPE-5 INHIBITORS” (Lead Discovery Center GmbH, priority 2021, published 2024).

Assay [1] has as its target T1, β5 subunit of the human constitutive proteasome (CPS) (Homo sapiens, UniProt P28074).
T1 construct: purchased Boston Biochem E-360
Briefly: β5 inhibition assay, human constitutive proteasome (Suc-LLVY-AMC). The assay is classed as biochemical. Particulars: IC50 class, Suc-LLVY-AMC substrate. The procedure: The enzymatic activity of the β5 subunit of the human constitutive proteasome (CPS) is analyzed. In another assay, which differs from the assay of the human constitutive proteasome only in using the human immunoproteasome (IPS) the enzymatic activity of the β5 subunit of the human immunoproteasome (IPS) is analyzed. […] Inhibition is indicated as IC50 [nM] (“-”=not measured).

Assay [2] has as its target T2, β5 subunit of the human immunoproteasome (IPS) (Homo sapiens, UniProt P28062).
T2 construct: purchased Boston Biochem E-370
Briefly: β5 inhibition assay, human immunoproteasome (Suc-LLVY-AMC). The conditions noted are these: IC50 class, Suc-LLVY-AMC substrate. The assay is classed as biochemical. Put shortly: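 β5 activity is read as liberated AMC fluorescence (355/460 nm) after 4 h dark reaction at RT with 22.6 μM Suc-LLVY-AMC, stopped by 1 μM bortezomib. Beforehand, 1 nM human IPS and compound sat 10 min at RT in HEPES pH 7.5 buffer containing NaCl, 0.02% SDS and DTT.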

In another assay the test system is HT-29 cells. Description: CellTiter-Glo luminescent cell viability assay with HT-29 cells (72h incubation). The format is cell-based, human. Particulars: Homo sapiens, HT-29, HT29 cells, read-out: CTG HT29. The procedure, abridged:
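Viability read as CellTiter-Glo luminescence after 72 h compound exposure, with 10 μM staurosporine and DMSO as control wells. Seeding 400 cells per well, compound added 24 h post-plating; IC50 from curve fitting.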
For orientation: In ATP-based viability assays light output follows the ATP content of the culture.

The test system of assay [3] is A549 (human lung carcinoma cell line). Briefly: Glo assay of A549 cells (Table 3; ProteasomeGlo plating scheme). The format is cell-based. Particulars: Homo sapiens; A549 cells; read-out: PGLo A549. The procedure, abridged:
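After acoustic compound transfer, plates incubate 105 min (37° C., 5% CO2). Proteasome-Glo reagent containing Suc-LLVY-Glo substrate is added, plates are shaken, then luminescence is measured after 10-15 min to derive IC50 [nM]. Staurosporine and DMSO serve as controls.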

With `Cc1ccc2cc1CNC(=O)[C@H](CCc1ccccc1)NC(=O)[C@@H](NC(=O)Cc1cnc(N)s1)CC(=O)N1CCCC(CCO2)C1` (stereo partly drawn) [Compound 311, 2-(2-aminothiazol-5-yl)-N-((9S,12S)-5^4-methyl-8,11,14-trioxo-9-phenethyl-4-oxa-7,10-diaza-1(3,1)-piperidina-5(1,3)-benzenacyclotetradecaphane-12-yl)acetamide], the IC50 (in assay [1]; in assay [2]; with HT-29 cells; in assay [3]) was less than 100 nM each time.
As to `CC(=O)c1ccc(CC(=O)N[C@H]2CC(=O)N3CCCC(CCOc4ccc(C)c(c4)CNC(=O)[C@H](CCc4ccccc4)NC2=O)C3)cc1` (stereo partly drawn) [Compound 341, 2-(4-acetylphenyl)-N-((9S,12S)-54-methyl-8,11,14-trioxo-9-phenethyl-4-oxa-7,10-diaza-1(3,1)-piperidina-5(1,3)-benzenacyclotetradecaphane-12-yl)acetamide], the IC50 (in assay [1]; in assay [2]; with HT-29 cells; in assay [3]) was less than 100 nM in each case.
With `Cc1n[nH]c(CC(=O)N[C@H]2CC(=O)N3CCCC(CCOc4ccc(C)c(c4)CNC(=O)[C@H](CCc4ccccc4)NC2=O)C3)n1` (stereo partly drawn) [Compound 332, 2-(3-methyl-1H-1,2,4-triazol-5-yl)-N-((9S,12S)-5^4-methyl-8,11,14-trioxo-9-phenethyl-4-oxa-7,10-diaza-1(3,1)-piperidina-5(1,3)-benzenacyclotetradecaphane-12-yl)acetamide], the IC50 (in assay [1]; in assay [2]; in the assay with HT-29 cells; in assay [3]) was less than 100 nM in each case.
In the case of `Cc1ccc2cc1CNC(=O)[C@H](CCc1ccccc1)NC(=O)[C@@H](NC(=O)Cc1ccccc1)CC(=O)N1CCCC(CCO2)C1` (stereo partly drawn) [Compound 29, N-((9S,12S)-5^4-methyl-8,11,14-trioxo-9-phenethyl-4-oxa-7,10-diaza-1(3,1)-piperidina-5(1,3)-benzenacyclotetradecaphane-12-yl)-2-phenylacetamide], the IC50 (in assay [1]; in assay [2]; in the assay with HT-29 cells; in assay [3]) was less than 100 nM throughout.
On to `Cc1ccc2cc1CNC(=O)[C@H](CCc1ccccc1)NC(=O)[C@@H](NC(=O)C(C)c1ccc(N)cc1)CC(=O)N1CCCC(CCO2)C1` (stereo partly drawn) [Compound 309, 2-(4-aminophenyl)-N-((9S,12S)-5^4-methyl-8,11,14-trioxo-9-phenethyl-4-oxa-7,10-diaza-1(3,1)-piperidina-5(1,3)-benzenacyclotetradecaphane-12-yl)propanamide], for which the IC50 (in assay [1]; in assay [2]; with HT-29 cells; in assay [3]) was less than 100 nM throughout.
In the case of `CC(=O)N[C@H]1CC(=O)N2CCCC(CCOc3ccc(C)c(c3)CNC(=O)C(c3cnn(C)c3)NC1=O)C2` (stereo partly drawn) [Compound 552, N-((12S)-5^4-methyl-9-(1-methyl-1H-pyrazol-4-yl)-8,11,14-trioxo-4-oxa-7,10-diaza-1(3,1)-piperidina-5(1,3)-benzenacyclotetradecaphane-12-yl)acetamide], the IC50 was less than 100 nM in assay [1], less than 100 nM in assay [2], less than 100 nM with HT-29 cells and 100 to 500 nM in assay [3].
With `CCOC(=O)N[C@H]1CC(=O)N2CCCC(CCOc3ccc(C)c(c3)CNC(=O)C(c3cnn(C)c3)NC1=O)C2` (stereo partly drawn) [Compound 363, Ethyl ((12S)-5^4-methyl-9-(1-methyl-1H-pyrazol-4-yl)-8,11,14-trioxo-4-oxa-7,10-diaza-1(3,1)-piperidina-5(1,3)-benzenacyclotetradecaphane-12-yl)carbamate], the IC50 (in assay [1]; in assay [2]; with HT-29 cells; in assay [3]) was less than 100 nM each time.
Take `CC(=O)N[C@H]1CC(=O)N2CCCC(CCOc3ccc(C)c(c3)CNC(=O)C(CCC3CCN(C(C)=O)CC3)NC1=O)C2` (stereo partly drawn) [Compound 338, N-((12S)-9-(2-(1-acetylpiperidin-4-yl)ethyl)-5^4-methyl-8,11,14-trioxo-4-oxa-7,10-diaza-1(3,1)-piperidina-5(1,3)-benzenacyclotetradecaphane-12-yl)acetamide]: the IC50 was less than 100 nM in assay [1], less than 100 nM in assay [2], less than 100 nM in the assay with HT-29 cells and 100 to 500 nM in assay [3].
Take `Cc1ccc2cc1CNC(=O)C(CCc1ccccc1)NC(=O)[C@@H](NC(=O)OCc1ccccc1)CC(=O)N1CCCC(CCO2)C1` (stereo partly drawn) [Compound 503, benzyl ((12S)-9-phenethyl-5^4-methyl-8,11,14-trioxo-4-oxa-7,10-diaza-1(3,1)-piperidina-5(1,3)-benzenacyclotetradecaphane-12-yl)carbamate]: the IC50 in assay [1] is less than 100 nM; in assay [2], less than 100 nM; with HT-29 cells, less than 100 nM; in assay [3], 100 to 500 nM.
In the case of `Cc1ccc2cc1CNC(=O)[C@H](CCc1ccccc1)NC(=O)[C@@H](NC(=O)C(C)(C)C)CC(=O)N1CCCC(CCO2)C1` (stereo partly drawn) [Compound 27, N-((9S,12S)-5^4-methyl-8,11,14-trioxo-9-phenethyl-4-oxa-7,10-diaza-1(3,1)-piperidina-5(1,3)-benzenacyclotetradecaphane-12-yl)pivalamide], the IC50 (in assay [1]; in assay [2]; in the assay on HT-29 cells; in assay [3]) was less than 100 nM throughout.
As for `Cc1ccc2cc1CNC(=O)[C@H](CCc1ccccc1)NC(=O)[C@@H](NC1COC1)CC(=O)N1CCCC(CCO2)C1` (stereo partly drawn) [Compound 35, (9S,12S)-5^4-methyl-12-(oxetan-3-ylamino)-9-phenethyl-4-oxa-7,10-diaza-1(3,1)-piperidina-5(1,3)-benzenacyclotetradecaphane-8,11,14-trione], the IC50 in assay [1] is less than 100 nM; in assay [2] it was less than 100 nM; with HT-29 cells, 100 to 500 nM; in assay [3], 100 to 500 nM.
Take `Cc1ccc2cc1CNC(=O)[C@H](CCc1ccccc1)NC(=O)[C@@H](NC(=O)c1nc3ccccc3[nH]1)CC(=O)N1CCCC(CCO2)C1` (stereo partly drawn) [Compound 31, N-((9S,12S)-5^4-methyl-8,11,14-trioxo-9-phenethyl-4-oxa-7,10-diaza-1(3,1)-piperidina-5(1,3)-benzenacyclotetradecaphane-12-yl)-1H-benzo[d] imidazole-2-carboxamide]: the IC50 (in assay [1]; in assay [2]; in the assay with HT-29 cells; in assay [3]) was less than 100 nM throughout.
With `Cc1ccc2cc1CNC(=O)[C@H](CCc1ccccc1)NC(=O)[C@@H](NC(=O)OCc1ccccc1)CCC(=O)N1CCC(CCO2)C1` (stereo partly drawn) [Compound 350, benzyl ((9S,12S)-5^4-methyl-8,11,15-trioxo-9-phenethyl-4-oxa-7,10-diaza-1(3,1)-pyrrolidina-5(1,3)-benzenacyclopentadecaphane-12-yl)carbamate], the IC50 (in assay [1]; in assay [2]; in the assay with HT-29 cells; in assay [3]) was less than 100 nM throughout.
On to `Cc1ccc2cc1CNC(=O)C(CCc1cnccn1)NC(=O)[C@@H](NC(=O)Cc1ccc(N)cc1F)CC(=O)N1CCCC(CCO2)C1` (stereo partly drawn) [Compound 372, 2-(4-amino-2-fluorophenyl)-N-((9S,12S)-5^4-methyl-8,11,14-trioxo-9-(2-(pyrazin-2-yl)ethyl)-4-oxa-7,10-diaza-1(3,1)-piperidina-5(1,3)-benzenacyclotetradecaphane-12-yl) acetamide], for which the IC50 (in assay [1]; in assay [2]; in the assay on HT-29 cells; in assay [3]) was less than 100 nM in each case.
On to `Cc1ccc2cc1CNC(=O)C(CCc1ccncc1)NC(=O)[C@@H](NC(=O)Cc1nnc(N)s1)CC(=O)N1CCCC(CCO2)C1` (stereo partly drawn) [Compound 342, 2-(5-amino-1,3,4-thiadiazol-2-yl)-N-((12S)-5^4-methyl-8,11,14-trioxo-9-(2-(pyridin-4-yl)ethyl)-4-oxa-7,10-diaza-1(3,1)-piperidina-5(1,3)-benzenacyclotetradecaphane-12-yl)acetamide], for which the IC50 (in assay [1]; in assay [2]; with HT-29 cells; in assay [3]) was less than 100 nM in each case.
On to `Cc1ccc2cc1CNC(=O)[C@H](CCc1ccccc1)NC(=O)[C@@H](NC(=O)OCc1ccccc1)CCCC(=O)N1CCC(CCO2)C1` (stereo partly drawn) [Compound 352, benzyl ((9S, 12S)-5^4-methyl-8,11,16-trioxo-9-phenethyl-4-oxa-7,10-diaza-1(3,1)-pyrrolidina-5(1,3)-benzenacyclohexadecaphane-12-yl)carbamate], for which the IC50 (in assay [1]; in assay [2]; in the assay with HT-29 cells; in assay [3]) was less than 100 nM in each case.
`Cc1ccc2cc1CNC(=O)[C@H](CCc1ccccc1)NC(=O)[C@@H](NC(=O)Cc1ccccc1C)CC(=O)N1CCCC(CCO2)C1` (stereo partly drawn) [Compound 373, N-((9S,12S)-5^4-methyl-8,11,14-trioxo-9-phenethyl-4-oxa-7,10-diaza-1(3,1)-piperidina-5(1,3)-benzenacyclotetradecaphane-12-yl)-2-(o-tolyl)acetamide]: the IC50 in assay [1], in assay [2] and in assay [3] was less than 100 nM throughout.
